Consider 10 compounds from ChEMBL document CHEMBL1201862, “PubChem BioAssay data set” (2004).

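Protocol summary: plate cells (96-well), add compound at 5 concentrations, incubate 48 h, interpolate endpoints linearly. GI50 marks 50% less growth.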 Active and inactive are the calls of the source. Cut-off read from the data, not from the text of the source: active = GI50 up to about 1.1 µM and inactive = higher. Where a SMILES comes first, the peptide text is derived from it. The star is where a group is joined. Cbz = O=C(OCc1ccccc1)*

Holding throughout (assay): NCI anticancer screen, dose series, 48 h
In assay [1] the test system is HL-60.
Assay [2] concerns NCI-H226.
The subject of assay [3] is K562.
Assay [4] relates to NCI-H460.
The subject of assay [5] is CCRF-CEM.
Assay [6] relates to OVCAR-4.
In assay [7] the test system is UACC-257.
Assay [8] concerns PC-3.
Assay [9] has as its system NCI-H522.
The test system of assay [10] is MDA-MB-231.
The subject of assay [11] is 786-0.
Assay [12] deals with BT-549.
Assay [13] concerns SN12C.
Assay [14] deals with RPMI-8226.
Assay [15] relates to A549.
For assay [16], the system named is OVCAR-3.
Assay [17] relates to U-251.
Assay [18] concerns SK-OV-3.
The subject of assay [19] is EKVX.
Assay [20] concerns MDA-MB-435.

On to `CN(O)C(=O)CCC(NC(=O)CCC(N)C(=O)O)C(=O)NCC(=O)O` (configuration not stated), for which the GI50 in assay [1], in [2], in assay [3], in [4], in [5] and in assay [6] was > 100 µM (inactive) in each case. For the same compound, the GI50 in [7], in [8], in [9], in assay [10], in [11] and in assay [12] was > 100 µM (inactive) throughout. Further, the GI50 in assay [13], in [14], in [15], in assay [16], in assay [17] and in assay [18] was > 100 µM (inactive) throughout. In addition, the GI50 in [19] and in [20] was > 100 µM (inactive) throughout.
For `CCOc1c(OC)cc(-c2nc3n(n2)C(=O)C(CC)S3)cc1OC` (configuration not stated), the GI50 in assay [1], in [2], in assay [3], in assay [4], in [5] and in assay [6] was > 10 µM (inactive) each time. In addition, the GI50 in assay [7], in assay [8], in assay [9], in assay [10], in assay [11] and in assay [12] was > 10 µM (inactive) throughout. The GI50 in assay [13], in assay [14], in assay [15], in assay [16], in [17] and in assay [18] was > 10 µM (inactive) in each case. For the same compound, the GI50 in assay [19] and in [20] was > 10 µM (inactive) in each case.
Regarding `Clc1ccc(/C=N/c2ccc3c(c2)Cc2ccccc2-3)c(Cl)c1`, the GI50 in assay [1] was 77.1 µM (inactive); in assay [2], > 100 µM (inactive); in assay [3], 58.3 µM (inactive); in assay [4], > 100 µM (inactive); in assay [5], 88.5 µM (inactive); in assay [6] it was > 100 µM (inactive). In addition, the GI50 in assay [7], in assay [8], in [9], in assay [10], in assay [11] and in assay [12] was > 100 µM (inactive) each time. The GI50 is > 100 µM (inactive) in [13]; 75.2 µM (inactive) in [14]; > 100 µM (inactive) in [15]; > 100 µM (inactive) in assay [16]; > 100 µM (inactive) in assay [17]; > 100 µM (inactive) in assay [18]. The values for the GI50 in [19] and in [20] were > 100 µM (inactive) and 50.7 µM (inactive), respectively.
With `CCOc1cc(NC(C)=O)ccc1C(=O)NN1C(=O)CSC1c1ccc(O)c(OC)c1` (configuration not stated), the GI50 was 41.5 µM (inactive) in [1]; 69.5 µM (inactive) in assay [2]; 40.7 µM (inactive) in [3]; 43.5 µM (inactive) in assay [4]; 40.8 µM (inactive) in [5]; 39.9 µM (inactive) in [6]. Also, the GI50 was 48.4 µM (inactive) in assay [7]; 44 µM (inactive) in [8]; 37.8 µM (inactive) in assay [9]; 53.8 µM (inactive) in [10]; > 100 µM (inactive) in [11]; 28 µM (inactive) in assay [12]. The GI50 was > 100 µM (inactive) in assay [13]; 40.4 µM (inactive) in assay [14]; 38.9 µM (inactive) in assay [15]; 58.7 µM (inactive) in assay [16]; 93.5 µM (inactive) in assay [18]; 42.7 µM (inactive) in assay [19]. The GI50 in [20] was 46.2 µM (inactive).
For `CC(C)(C)OC(=O)C1=C(N)N(Cc2ccccc2)C2(C)C=CC(=O)C=C12` (configuration not stated), the GI50 was 1.88 µM (inactive) in assay [1]; 12.9 µM (inactive) in assay [2]; 2.74 µM (inactive) in assay [3]; 15.5 µM (inactive) in assay [4]; 2.58 µM (inactive) in assay [5]; 3.36 µM (inactive) in assay [6]. The GI50 in assay [7] is 5.24 µM (inactive); in [8] it was 7.21 µM (inactive); in [9], 1.67 µM (inactive); in assay [10], 6.98 µM (inactive); in [11] it was 3.83 µM (inactive); in assay [12] it was 1.95 µM (inactive). Further, the GI50 in assay [13] is 8.47 µM (inactive); in assay [14] it was 2.6 µM (inactive); in assay [15], 12.4 µM (inactive); in assay [16], 3.1 µM (inactive); in assay [17], 8.73 µM (inactive); in assay [18] it was 19.5 µM (inactive). For the same compound, the GI50 in assay [19] was 5.73 µM (inactive); in assay [20], 4.02 µM (inactive).
Turning to `CCOC(=O)c1c(CN2CCCC2)n(-c2ccccc2)c2cc(Br)c(OC)cc12`, the GI50 in assay [1] was 12.5 µM (inactive); in assay [2] it was 13.3 µM (inactive); in assay [3], 16.2 µM (inactive); in assay [4], 6.89 µM (inactive); in assay [5], 8.87 µM (inactive); in assay [6], 33.4 µM (inactive). In addition, the GI50 in assay [7] was 13.2 µM (inactive); in assay [8] it was 20.8 µM (inactive); in assay [9], 13.7 µM (inactive); in assay [10] it was 17.2 µM (inactive); in assay [11], 15 µM (inactive); in assay [12], 18.7 µM (inactive). Moreover, the GI50 is 26.1 µM (inactive) in assay [13]; 12.8 µM (inactive) in assay [14]; 7.35 µM (inactive) in [15]; 24.9 µM (inactive) in [16]; 16.1 µM (inactive) in assay [17]; 25.5 µM (inactive) in [18]. Moreover, the GI50 in [19] was 20 µM (inactive); in assay [20], 26.9 µM (inactive).
For `Cc1cc2c([N+](=O)[O-])cc3c(c2o1)C(=O)C=CC3=O`, the GI50 in assay [1] was 2.2 µM (inactive); in [2], 28.6 µM (inactive); in [3], 1.79 µM (inactive); in assay [4] it was 18.5 µM (inactive); in assay [5] it was 1.43 µM (inactive); in assay [6], 16.1 µM (inactive). Further, the GI50 is 2.62 µM (inactive) in [7]; 16.4 µM (inactive) in [8]; 1.52 µM (inactive) in assay [9]; 18.7 µM (inactive) in [10]; 2.01 µM (inactive) in assay [11]; 16.6 µM (inactive) in [12]. Besides, the GI50 was 6.19 µM (inactive) in [13]; 0.586 µM (active) in [14]; 18.3 µM (inactive) in [15]; 5.64 µM (inactive) in assay [16]; 17.7 µM (inactive) in assay [17]; 29.5 µM (inactive) in [18]. Besides, the figures for the GI50 in assay [19] and in [20] were 3.37 µM (inactive) and 3.2 µM (inactive), respectively.
As for `CC(C)(C)NC(=O)/C(=C\Sc1ccccc1)c1ccccc1`, the GI50 in assay [1] is > 100 µM (inactive); in assay [2] it was > 72.1 µM (inactive); in assay [3], 32.7 µM (inactive); in assay [4], > 100 µM (inactive); in assay [5], 40.6 µM (inactive); in assay [6], > 68.4 µM (inactive). Also, the GI50 in assay [7] is > 100 µM (inactive); in [8] it was > 76.2 µM (inactive); in assay [9], 6.15 µM (inactive); in assay [10], > 95.5 µM (inactive); in [11], > 100 µM (inactive); in assay [12] it was > 30.3 µM (inactive). For the same compound, the GI50 in assay [13] is > 100 µM (inactive); in assay [14], 19.6 µM (inactive); in assay [15] it was > 100 µM (inactive); in assay [16] it was > 100 µM (inactive); in assay [17] it was > 100 µM (inactive); in assay [18], > 100 µM (inactive). The GI50 in assay [19] was > 74.6 µM (inactive); in assay [20] it was > 82.8 µM (inactive).
In the case of `CCCC[C@@H]1CCN2C[C@@H](O)[C@@H](O)[C@H]2[C@@H]1O`, the GI50 in [1], in [2], in assay [3], in assay [4], in assay [5] and in [6] was > 100 µM (inactive) each time. Moreover, the GI50 in [7], in assay [8], in assay [9], in assay [10], in [11] and in assay [12] was > 100 µM (inactive) in each case. For the same compound, the GI50 in assay [14], in assay [15], in assay [16], in assay [17], in assay [18] and in assay [19] was > 100 µM (inactive) each time. For the same compound, in assay [20], the GI50 is > 100 µM (inactive).
Take `COC(=O)C(CC(C)C)NC(=O)C(CCCNC(=N)N)NC(=O)OCc1ccccc1` (stereo not drawn) (Cbz-Arg-Leu-OMe; configuration not given here): the GI50 in assay [1], in assay [2], in [3], in [4], in assay [5] and in assay [6] was > 100 µM (inactive) in each case. Besides, the GI50 in assay [8] was > 100 µM (inactive); in assay [9] it was 78.5 µM (inactive); in assay [10] it was > 100 µM (inactive); in assay [11], > 100 µM (inactive); in assay [12] it was > 100 µM (inactive); in assay [13], > 100 µM (inactive). For the same compound, the GI50 in assay [14], in assay [15], in assay [16], in assay [17], in [18] and in assay [19] was > 100 µM (inactive) in each case. Also, the GI50 in assay [20] is > 100 µM (inactive).
